In US12077534B2, “Aza-heterobicyclic inhibitors of MAT2A and methods of use for treating cancer” (Les Laboratoires Servier SAS, priority 2018, dated 2024):

Assays:
[1] = system: MAT2A activity (SAM) in HCT116 cells with deleted MTAP gene; assay: Cellular assay of target engagement (SAM) by LC-MS/MS; assay type: cell-based; conditions: Homo sapiens, HCT-116; HCT116 MTAP −/−, 72 hrs; read-out: Cell 72 h SAM Inhibition (MTAP −/−)
Experimental: Measurement of MAT2A activity in cells was made by direct quantitation of the abundance of the product of its enzymatic activity, SAM. Cancer cells were treated with candidate MAT2A inhibitors for a suitable incubation period, and the cells were then lysed using a reagent which quenched any further enzyme activity. Soluble metabolites including SAM were collected and SAM itself was directly measured from the lysate using quantitative LC-MS/MS.
A typical assay was performed using an HCT116 human colon carcinoma cell line which was genetically engineered to delete the MTAP gene (commercially available from Horizon Discovery). This cell line was utilized because it was determined that loss of the MTAP gene predicts sensitivity to MAT2A inhibitors. Cells were plated in 96-well dishes at appropriate cell density. Following 24 hours, cells were then treated with the candidate MAT2A inhibitor. Prior to addition to cells, the compound was first serially diluted in 100% DMSO, typically as a 3-fold serial dilution starting at 500× top dose with 10 dose points including DMSO only control. Compound was then transferred to a working stock plate in cell culture media by adding 5 μL of compound in DMSO to 495 μL of cell culture media. This working stock was then added to cells via a further 5-fold dilution, by adding 25 μL of working stock to 100 μL of cells in culture media. Following compound addition, cells were incubated at 37° C./5% CO2 for 72 hrs.
To quantitate SAM levels following compound treatment, cells were gently washed once in ammonium carbonate buffer (75 mM at pH 7.4), placed on dry ice, and lysed with metabolite extraction buffer (80% cold methanol and 20% water (v/v) with acetic acid at 1M final concentration with 200 ng/mL deuterated d3-SAM as internal control). Following centrifugation at 4° C. at 3,200 rpm for 30 minutes, the supernatant was collected and stored at −80° C. until analysis by Liquid Chromatography with tandem Mass Spectrometry (LC-MS/MS). LC-MS/MS analysis was performed using an API6500 Mass Spectrometer (Sciex, Framingham, MA, USA) operating in positive ion spray mode and equipped with a Waters UPLC Acquity (Waters, Milford, MA, USA) BEH Amide column. Multiple Reaction Monitoring data was acquired for SAM and the d3-SAM standard, using a mass transition pair at m/z 399.2→250.1 and 402.2→250.1, respectively. In a typical LC-MS/MS analysis, the initial flow rate was 0.5 ml/min of 25% mobile phase A (acetonitrile and water at 5:95 (v/v) with 1% formic acid and 10 mM ammonium acetate) and 75% mobile phase B (acetonitrile and water at 95:5 (v/v) with 1% formic acid and 10 mM ammonium acetate), 0.2-0.5 minutes with 75%-35% mobile phase B, 25%-65% mobile phase A, at 0.5 min 65% mobile phase A and 35% mobile phase B, 1.0-1.1 minutes with 35%-75% mobile phase B, 65%-25% mobile phase A, at 1.1 min 25% mobile phase A and 75% mobile phase B with a total run time of 1.5 minutes.

[2] = system: HCT116 MTAP−/−; assay: Inhibition of cellular proliferation (Cell Titer Glo), HCT116 MTAP-/-; assay type: cell-based; conditions: Homo sapiens, HCT-116, 96 h, 4 days, read-out: 4 Day Relative Growth Inhibition (MTAP −/−)
Experimental: (§1) Test compound impact on cancer cell growth was assessed by treating cancer cells with compound for 4 days and then measuring proliferation using an ATP-based cell proliferation readout (Cell Titer Glo, Promega Corporation).
(§2) In a typical assay an isogenic pair of HCT116 human colon carcinoma cell lines which vary only in MTAP deletion status (HCT116 MTAP+/+ and HCT116 MTAP−/−) were plated in 96-well dishes at appropriate cell density. Following 24 hours, cells were then treated with the candidate MAT2A inhibitor. Prior to addition to cells, the compound was first serially diluted in 100% DMSO, typically as a 3-fold serial dilution starting at 500× top dose with 10 dose points including DMSO only control. Compound was then transferred to a working stock plate in cell culture media by adding 5 μL of compound in DMSO to 495 μL of cell culture media. This working stock was then added to cells via a further 5-fold dilution, by adding 25 μL of working stock to 100 μL of cells in culture media. Following compound addition, cells were incubated at 37° C./5% CO2 for 4 days.
(§3) To measure inhibition of cellular proliferation, cells were allowed to equilibrate to room temperature for 30 minutes, and were then treated with 125 μL of Cell Titer Glo reagent. The plate was then covered with aluminum foil and shaken for 15 minutes to ensure complete mixing and full cell lysis. Luminescent signal was then measured using a plate-based luminometer Veritas version 1.9.2 using ATP standard curve to confirm assay reproducibility from run to run. This luminescence measure was converted to a proliferation index by subtracting from each data point the ATP luminescence signal measured from a bank (no cells) well and dividing by the ATP luminescence signal measured in 0.2% DMSO control well adjusted for signal in blank well. Compound activity was then represented as a percentage change in proliferation relative to a within-plate DMSO control against log 10 of compound concentration in molar (M) units.

[3] = target: T1, MAT2A homodimer (Homo sapiens, UniProt P31153); assay: MAT2A biochemical assay (phosphate release, PiColorLock Gold); conditions: recombinant MAT2A homodimer, 60 min pre-incubation, 25° C.; read-out: Enzyme Inhibition
T1 construct: inferred from Ni sepharose purification and imidazole elution; made in house; host or cells: SF9 insect cells, recombinant baculovirus (Bac to Bac, pFASTBAC1)
T1 sequence (P31153 whole entry): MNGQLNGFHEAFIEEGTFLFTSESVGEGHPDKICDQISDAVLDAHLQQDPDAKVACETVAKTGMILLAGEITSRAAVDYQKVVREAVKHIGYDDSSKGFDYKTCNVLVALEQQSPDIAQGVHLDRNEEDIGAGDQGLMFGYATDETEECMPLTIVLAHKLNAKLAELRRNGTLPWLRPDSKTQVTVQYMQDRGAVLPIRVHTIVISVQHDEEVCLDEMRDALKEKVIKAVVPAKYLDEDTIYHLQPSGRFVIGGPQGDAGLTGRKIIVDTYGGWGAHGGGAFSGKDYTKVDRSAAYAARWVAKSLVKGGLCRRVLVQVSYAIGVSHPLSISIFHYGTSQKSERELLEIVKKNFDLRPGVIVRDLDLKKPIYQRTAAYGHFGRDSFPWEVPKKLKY
Experimental: Mat2A protein was expressed by recombinant baculovirus in SF9 infected cells using the Bac to Bac system cloned into the pFASTBAC1 vector (Invitrogen, Carlsbad, CA). Recombinant MAT2A was isolated from the cell lysate of 150 g of infected cells using HP Ni sepharose column chromatography. Recombinant MAT2A homodimer was eluted with 250 and 500 mM imidazole, and fractions containing MAT2A were identified by sodium dodecyl sulfate polyacrylamide gel electrophoresis and pooled.
For determination of the inhibitory potency of compounds against the MAT2A homodimer, protein was diluted to 4 μg/mL in assay buffer (50 mM Tris, pH 8.0, 50 mM KCl, 15 mM MgCl2, 0.3 mM EDTA, 0.005% [w/v] bovine serum albumin [BSA]). Test compound was prepared in 100% dimethyl sulfoxide (DMSO) at 50× the desired final concentration. A 1 μL volume of compound dilution was added to 40 μL of enzyme dilution and the mixture was allowed to equilibrate for 60 minutes at 25° C. The enzymatic assay was initiated by the addition of 10 μL of substrate mix (500 μM ATP, pH 7.0, 400 μM L-methionine in 1× assay buffer), and the mixture was incubated for a further 60 minutes at 25° C. The reaction was halted and the liberated phosphate released by the enzyme in stoichiometric amounts by the production of S-adenosyl methionine (SAM) was measured using the PiColorLock Gold kit (Innova Biosciences, UK). Absolute product amounts were determined by comparison to a standard curve of potassium phosphate buffer, pH 8.0.

[4] = system: HCT116 MTAP+/+; assay: Inhibition of cellular proliferation (Cell Titer Glo), HCT116 MTAP+/+; assay type: cell-based; conditions: Homo sapiens, HCT-116, 96 h, 4 days, read-out: 4 Day Relative Growth Inhibition (MTAP +/+)
Experimental: as §1, §2, §3

Row | IC50 [1] | IC50 [2] | IC50 [3] | IC50 [4] | SMILES
1 | < 100 nM | < 100 nM | < 100 nM | ≥ 1000 nM | Cn1cc2cc(-n3nc4ccc(OCC(F)F)nc4c(-c4ccc(C5CC5)nc4)c3=O)ccc2n1 [Example 107]
2 | < 100 nM | < 100 nM | < 100 nM | ≥ 1000 nM | [2H]C([2H])([2H])Oc1ccc(-c2c(=O)n(-c3ccc4nn(C)cc4c3)nc3ccc(OCC(F)F)nc23)cc1 [Example 108]
3 | < 100 nM | < 100 nM | < 100 nM | ≥ 1000 nM | Cn1cc2cc(-n3nc4ccc(OCC(F)F)nc4c(-c4ccc(OC(F)(F)F)cc4)c3=O)ccc2n1 [Example 109]
4 | < 100 nM | < 100 nM | < 100 nM | 100 to 1000 nM | [2H]C([2H])([2H])Oc1ccc(-c2c(=O)n(-c3ccc4nn(C)cc4c3)nc3ccc(OCC)nc23)cc1 [Example 110]
5 | < 100 nM | < 100 nM | < 100 nM | ≥ 1000 nM | CCCOc1ccc2nn(-c3ccc4nn(C)cc4c3)c(=O)c(-c3ccc(OC(F)F)cc3)c2n1 [Example 111]
6 | 100 to 1000 nM | 100 to 1000 nM | < 100 nM | ≥ 1000 nM | CCOc1ccc2nn(-c3ccc(OC)cc3)c(=O)c(-c3ccc(C)nc3)c2n1 [Example 112]
7 | < 100 nM | 100 to 1000 nM | < 100 nM | ≥ 1000 nM | Cn1cc2cc(-n3nc4ccc(OC5CC5)nc4c(-c4ccc(Cl)cc4)c3=O)ccc2n1 [Example 113]
8 | < 100 nM | < 100 nM | < 100 nM | ≥ 1000 nM | Cn1cc2cc(-n3nc4ccc(OCC(F)F)nc4c(-c4ccc(C5CC5)cc4)c3=O)ccc2n1 [Example 114]
9 | < 100 nM | < 100 nM | < 100 nM | 100 to 1000 nM | CCOc1ccc2nn(-c3ccc4nn(C)cc4c3)c(=O)c(-c3ccc(OC)cc3)c2n1 [Example 115]
10 | < 100 nM | < 100 nM | < 100 nM | ≥ 1000 nM | Cn1cc2cc(-n3nc4ccc(OCC(F)(F)F)nc4c(-c4ccc(Cl)cc4)c3=O)ccc2n1 [Example 116]
11 | < 100 nM | < 100 nM | < 100 nM | ≥ 1000 nM | CCOc1ccc2nn(-c3ccc(OC)cc3)c(=O)c(-c3ccc(Cl)cc3)c2n1 [Example 117]
12 | < 100 nM | < 100 nM | < 100 nM | ≥ 1000 nM | CCOc1ccc2nn(-c3ccc4nn(C)cc4c3)c(=O)c(-c3ccc(Cl)cc3)c2n1 [Example 119]
13 | < 100 nM | < 100 nM | < 100 nM | ≥ 1000 nM | CCOc1ccc2nn(-c3ccc4nn(C)cc4c3)c(=O)c(-c3ccc(OC(F)F)nc3)c2n1 [Example 120]
14 | < 100 nM | < 100 nM | < 100 nM | ≥ 1000 nM | CCOc1ccc2nn(-c3ccc4nn(C)cc4c3)c(=O)c(-c3ccc(OC(F)(F)F)nc3)c2n1 [Example 121]
15 | 100 to 1000 nM | < 100 nM | < 100 nM | ≥ 1000 nM | CCOc1ccc2nn(-c3ccc(OC)cc3)c(=O)c(-c3ccc(OC(F)F)nc3)c2n1 [Example 122]
16 | < 100 nM | < 100 nM | < 100 nM | 100 to 1000 nM | Cn1cc2cc(-n3nc4ccc(OCC(F)(F)F)nc4c(-c4ccc(OC(F)F)cc4)c3=O)ccc2n1 [Example 123]
17 | < 100 nM | < 100 nM | < 100 nM | 100 to 1000 nM | Cn1cc2cc(-n3nc4ccc(OCC(F)F)nc4c(-c4ccc(Cl)cc4)c3=O)ccc2n1 [Example 124]
18 | < 100 nM | < 100 nM | < 100 nM | 100 to 1000 nM | Cn1cc2cc(-n3nc4ccc(OCC(F)F)nc4c(-c4ccc(OC(F)F)cc4)c3=O)ccc2n1 [Example 125, 6-(2,2-difluoroethoxy)-4-(4-(difluoromethoxy)phenyl)-2-(2-methyl-2H-indazol-5-yl)pyrido[3,2-c]pyridazin-3(2H)-one]
19 | < 100 nM | < 100 nM | < 100 nM | ≥ 1000 nM | Cn1cc2cc(-n3nc4ccc(OCC(F)F)nc4c(-c4ccc(OC(F)F)nc4)c3=O)ccc2n1 [Example 126]
20 | < 100 nM | < 100 nM | < 100 nM | ≥ 1000 nM | CCOc1ccc2nn(-c3ccc4nn(C)cc4c3)c(=O)c(-c3ccc(C(F)(F)F)nc3)c2n1 [Example 127]
21 | < 100 nM | < 100 nM | < 100 nM | ≥ 1000 nM | Cn1cc2cc(-n3nc4ccc(OCC(F)F)nc4c(-c4ccc(OC(F)(F)F)nc4)c3=O)ccc2n1 [Example 128]
22 | < 100 nM | < 100 nM | < 100 nM | ≥ 1000 nM | Cn1cc2cc(-n3nc4ccc(OCCF)nc4c(-c4ccc(OC(F)F)cc4)c3=O)ccc2n1 [Example 129]
23 | < 100 nM | < 100 nM | < 100 nM | 100 to 1000 nM | COc1ccc(-c2c(=O)n(-c3ccc4nn(C)cc4c3)nc3ccc(OCC(F)F)nc23)cn1 [Example 130]
24 | 100 to 1000 nM | ≥ 1000 nM | < 100 nM | ≥ 1000 nM | Cn1cc2cc(-n3nc4ccc(OCC5CCC5)nc4c(-c4ccc(OC(F)F)cc4)c3=O)ccc2n1 [Example 131]
25 | 100 to 1000 nM | 100 to 1000 nM | < 100 nM | ≥ 1000 nM | Cn1cc2cc(-n3nc4ccc(OCCC(F)(F)F)nc4c(-c4ccc(OC(F)F)cc4)c3=O)ccc2n1 [Example 132]
